Results: ChEMBL document CHEMBL1154685, “Simple oxidation of pyrimidinylhydrazones to triazolopyrimidines and their inhibition of Shiga toxin trafficking” (Eur J Med Chem, 2010)

Test system: HeLa
Assay: Toxicity in human HeLa cells assessed as inhibition of protein synthesis by [35S]labeled methionine and cysteine incorporation
Assay type: cell-based

`Oc1ccc(-c2nc3c4c5c(sc4ncn3n2)CCCC5)cc1` was tested, and the Activity was “Non-toxic”.
For `COc1cc(/C=N/NC2=C3C4=C(CCCC4)SC3N=CN2)ccc1O` (configuration not stated), the Activity was “Non-toxic”.
